Measured values taken from PubChem BioAssay AID1919015 (Molecular Pharmacology Branch, DTP, NCI, 2023).

Test system: OVCAR-5 complex spheroids with HUVEC/MSC, viability, % test/control
Assay: Anticancer human tumor OVCAR-5 cell line growth inhibition [AhR];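 further: spheroids exposed to compounds for 7 days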;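 on viability, T/C: 100% = DMSO vehicle control wells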
Conditions: for IC50: curve of first compound; for viability, T/C: stronger effect = lower value
From the text: Multicellular complex tumor spheroid response to aryl hydrocarbon receptor antagonists in combination with a variety of drugs and investigational agents in selected tumor cell lines
The current study was undertaken to assess response to aryl hydrocarbon receptor antagonists in combination with standard-of-care drugs and investigational agents in solid tumor complex spheroid models. Complex spheroids include a stromal component modeled by human endothelial cells (HUVEC) and fibroblasts modeled by human mesenchymal stem cells (MSCs). The concentration ranges selected for each drug and investigational agent were based upon clinically achievable concentrations if the clinical Cmax of the agent was known.
Compounds. The drugs and investigational agents: BAY 2416964 (NSC825713), GNF351 (NSC835774), CH-223191 (NSC835775), CPI-455 (NSC825282), aza-TdCyd (NSC777586), decitabine (NSC127716), belinostat (NSC758774), entinostat (NSC756642), pevonedistat (NSC761192), tazemetostat (NSC777109), talazoparib (NSC765396), olaparib (NSC753686), selinexor (NSC780203), nedisertib (M3814, NSC802822), bortezomib (NSC756655), venetoclax (NSC766270), doxorubicin (NSC123127), elimusertib (BAY189344, NSC800525), ceralasertib (AZD6738, NSC777638), TAK-243 (NSC785004), alisertib (NSC759677), etoposide (NSC141540), topotecan (NSC609699), eribulin (NSC707389), gemcitabine (NSC613327), carboplatin (NSC241240), cisplatin (NSC119875), and SN-38 (NSC673596) were obtained from the National Cancer Institute (NCI) Developmental Therapeutics Program Chemical Repository (32). The FDA-approved anticancer drug set is available from the Developmental Therapeutics Program at https://dtp.cancer.gov/organization/dscb/obtaining/available plates.htm. […] The stock solutions were prepared in dimethyl sulfoxide (DMSO, Sigma-Aldrich, St. Louis, MO, cat. D2650), except for the platinum compounds which were prepared in saline (Quality Biological, Gaithersburg, MD, cat. 114-055-101), at 800-fold the tested concentration and stored at -70 degrees C prior to their use. All drugs and investigational agents were tested over a range starting from a high concentration at or near the clinical Cmax and decreasing in half-log increments. If the clinical Cmax for an agent had not been determined, the highest concentration tested was 10 microM (Table 1).
Cell Culture. All cells were maintained in an incubator at 37 degrees C and 5% CO2 with 95% humidity. The PDC lines were cultured according to standard operating procedures established by the NCI PDMR (https://pdmr.cancer.gov). Briefly, all PDCs were thawed and cultured in Matrigel-coated flasks prepared with a working solution of 1X Ham's F-12 nutrient mix, without supplementation (Invitrogen, Waltham, MA, cat. 11765054), 100 U/mL penicillin-streptomycin (Invitrogen, cat. 15140122), and 2.5% Matrigel (Corning Inc., Corning, NY, cat. 354248) for the first three passages. All PDCs were cultured in complete DMEM/F-12 media containing advanced DMEM/F-12 (Invitrogen, cat. 12634028), 4.9% defined fetal bovine serum, heat inactivated (HyClone Laboratories Inc., Logan, UT, cat. SH30070.03HI), 389 ng/mL hydrocortisone (Sigma-Aldrich, cat. H4001), 9.7 ng/mL human EGF recombinant protein (Invitrogen, cat. PHG0313), 23.4 microg/mL adenine (Sigma-Aldrich, cat. A2786), 97.3 U/mL penicillin-streptomycin (Invitrogen, cat. 15140122), 1.9 mM L-glutamine (Invitrogen, cat. 25030081), and 9.7 microM Y-27632 dihydrochloride (Tocris Bioscience, Bristol, United Kingdom, cat. 1254). The PDCs were cultured in complete DMEM/F12 media without 10 microM Y-27632 dihydrochloride for at least two passages prior to the screen. The established cell lines NCI-H1341 and […] were cultured in DMEM/F-12, HEPES (Invitrogen, cat. 11330032), 5% defined fetal bovine serum (HyClone Laboratories Inc., cat. SH30070.03), ITS premix universal culture supplement [insulin (5 microg/mL), transferrin (5 microg/mL), and selenious acid (5 ng/mL)] […]

[1] = second compound 0.1 µM, first compound 0.0316 µM
[2] = second compound 0.1 µM, first compound 0.1 µM
[3] = second compound 0.1 µM, first compound 0.316 µM
[4] = second compound 0.1 µM, first compound 1 µM
[5] = second compound 0.1 µM, first compound 3.16 µM
[6] = second compound 0.1 µM, first compound 10 µM
[7] = second compound 0.316 µM, first compound 0.0316 µM
[8] = second compound 0.316 µM, first compound 0.1 µM
[9] = second compound 0.316 µM, first compound 0.316 µM
[10] = second compound 0.316 µM, first compound 1 µM
[11] = second compound 0.316 µM, first compound 3.16 µM
[12] = second compound 0.316 µM, first compound 10 µM
[13] = second compound 1 µM, first compound 0.0316 µM
[14] = second compound 1 µM, first compound 0.1 µM
[15] = second compound 1 µM, first compound 0.316 µM
[16] = second compound 1 µM, first compound 1 µM
[17] = second compound 1 µM, first compound 3.16 µM
[18] = second compound 1 µM, first compound 10 µM
[19] = second compound 3.16 µM, first compound 0.0316 µM
[20] = second compound 3.16 µM, first compound 0.1 µM
[21] = second compound 3.16 µM, first compound 0.316 µM
[22] = second compound 3.16 µM, first compound 1 µM
[23] = second compound 3.16 µM, first compound 3.16 µM
[24] = second compound 3.16 µM, first compound 10 µM
[25] = second compound 10 µM, first compound 0.0316 µM
[26] = second compound 10 µM, first compound 0.1 µM
[27] = second compound 10 µM, first compound 0.316 µM
[28] = second compound 10 µM, first compound 1 µM
[29] = second compound 10 µM, first compound 3.16 µM
[30] = second compound 10 µM, first compound 10 µM

SMILES: CC(C)CC(NC(=O)C(Cc1ccccc1)NC(=O)c1cnccn1)B(O)O (stereo not given) + CC(CO)NC(=O)c1cc(-c2ccc(Cl)cc2)nn(-c2cnn(C)c2)c1=O
- IC50 (second compound 0.1 µM): 0.0233 µM
- IC50 (second compound 0.316 µM): 0.0238 µM
- IC50 (second compound 1 µM): 0.0242 µM
- IC50 (second compound 3.16 µM): 0.0221 µM
- IC50 (second compound 10 µM): 0.0203 µM
- viability, T/C (second compound 0.1 µM, first compound 0.000949 µM): 101%
- viability, T/C (second compound 0.1 µM, first compound 0.003 µM): 111%
- viability, T/C (second compound 0.1 µM, first compound 0.00949 µM): 90.8%
- viability, T/C (second compound 0.1 µM, first compound 0.03 µM): 38.2%
- viability, T/C (second compound 0.1 µM, first compound 0.0949 µM): 18.2%
- viability, T/C (second compound 0.1 µM, first compound 0.3 µM): 11%
- viability, T/C (second compound 0.316 µM, first compound 0.000949 µM): 104%
- viability, T/C (second compound 0.316 µM, first compound 0.003 µM): 112%
- viability, T/C (second compound 0.316 µM, first compound 0.00949 µM): 89.6%
- viability, T/C (second compound 0.316 µM, first compound 0.03 µM): 39.1%
- viability, T/C (second compound 0.316 µM, first compound 0.0949 µM): 20%
- viability, T/C (second compound 0.316 µM, first compound 0.3 µM): 8.57%
- viability, T/C (second compound 1 µM, first compound 0.000949 µM): 107%
- viability, T/C (second compound 1 µM, first compound 0.003 µM): 111%
- viability, T/C (second compound 1 µM, first compound 0.00949 µM): 95%
- viability, T/C (second compound 1 µM, first compound 0.03 µM): 39.1%
- viability, T/C (second compound 1 µM, first compound 0.0949 µM): 20.5%
- viability, T/C (second compound 1 µM, first compound 0.3 µM): 11.5%
- viability, T/C (second compound 3.16 µM, first compound 0.000949 µM): 96%
- viability, T/C (second compound 3.16 µM, first compound 0.003 µM): 105%
- viability, T/C (second compound 3.16 µM, first compound 0.00949 µM): 87.3%
- viability, T/C (second compound 3.16 µM, first compound 0.03 µM): 36%
- viability, T/C (second compound 3.16 µM, first compound 0.0949 µM): 20%
- viability, T/C (second compound 3.16 µM, first compound 0.3 µM): 12.4%
- viability, T/C (second compound 10 µM, first compound 0.000949 µM): 88.3%
- viability, T/C (second compound 10 µM, first compound 0.003 µM): 97.7%
- viability, T/C (second compound 10 µM, first compound 0.00949 µM): 79.4%
- viability, T/C (second compound 10 µM, first compound 0.03 µM): 34.4%
- viability, T/C (second compound 10 µM, first compound 0.0949 µM): 22.4%
- viability, T/C (second compound 10 µM, first compound 0.3 µM): 13.7%

SMILES: COc1cc(Nc2ncc3c(n2)-c2ccc(Cl)cc2C(c2c(F)cccc2OC)=NC3)ccc1C(=O)O + CC(CO)NC(=O)c1cc(-c2ccc(Cl)cc2)nn(-c2cnn(C)c2)c1=O
- IC50 (second compound 0.1 µM): 1.82 µM
- IC50 (second compound 0.316 µM): 2.43 µM
- IC50 (second compound 1 µM): 3.71 µM
- IC50 (second compound 3.16 µM): 1.76 µM
- IC50 (second compound 10 µM): 8.33 µM
- viability, T/C [1]: 88.6%
- viability, T/C [2]: 84.8%
- viability, T/C [3]: 62.4%
- viability, T/C [4]: 55.9%
- viability, T/C [5]: 48.1%
- viability, T/C [6]: 43.3%
- viability, T/C [7]: 87.3%
- viability, T/C [8]: 84.4%
- viability, T/C [9]: 65.7%
- viability, T/C [10]: 60%
- viability, T/C [11]: 47.9%
- viability, T/C [12]: 38.7%
- viability, T/C [13]: 92.1%
- viability, T/C [14]: 87%
- viability, T/C [15]: 69.5%
- viability, T/C [16]: 60.1%
- viability, T/C [17]: 54%
- viability, T/C [18]: 41.8%
- viability, T/C [19]: 79.4%
- viability, T/C [20]: 81.8%
- viability, T/C [21]: 65.4%
- viability, T/C [22]: 55%
- viability, T/C [23]: 46.7%
- viability, T/C [24]: 42.4%
- viability, T/C [25]: 75.5%
- viability, T/C [26]: 72.8%
- viability, T/C [27]: 62.9%
- viability, T/C [28]: 59%
- viability, T/C [29]: 51.8%
- viability, T/C [30]: 50.4%

SMILES: O=C(C=Cc1cccc(S(=O)(=O)Nc2ccccc2)c1)NO + CC(CO)NC(=O)c1cc(-c2ccc(Cl)cc2)nn(-c2cnn(C)c2)c1=O
- IC50 (second compound 0.1 µM): 1.05 µM
- IC50 (second compound 0.316 µM): 0.875 µM
- IC50 (second compound 1 µM): 0.995 µM
- IC50 (second compound 3.16 µM): 0.819 µM
- IC50 (second compound 10 µM): 0.928 µM
- viability, T/C [1]: 99.8%
- viability, T/C [2]: 95.7%
- viability, T/C [3]: 76%
- viability, T/C [4]: 52.2%
- viability, T/C [5]: 23.3%
- viability, T/C [6]: 6.15%
- viability, T/C [7]: 101%
- viability, T/C [8]: 95%
- viability, T/C [9]: 76.4%
- viability, T/C [10]: 45.9%
- viability, T/C [11]: 21%
- viability, T/C [12]: 6.73%
- viability, T/C [13]: 108%
- viability, T/C [14]: 101%
- viability, T/C [15]: 79.1%
- viability, T/C [16]: 50%
- viability, T/C [17]: 22.3%
- viability, T/C [18]: 5.69%
- viability, T/C [19]: 103%
- viability, T/C [20]: 91.9%
- viability, T/C [21]: 72.4%
- viability, T/C [22]: 45.7%
- viability, T/C [23]: 19.9%
- viability, T/C [24]: 5.14%
- viability, T/C [25]: 89.4%
- viability, T/C [26]: 84.2%
- viability, T/C [27]: 72.4%
- viability, T/C [28]: 49.3%
- viability, T/C [29]: 19.8%
- viability, T/C [30]: 4.82%
